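All cell lines were grown in 96-well plates and treated with compound for 48 hours. GI50 marks 50% less growth.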 The source made the active and inactive calls. No stated cut-off is given here; in the data, active = GI50 up to about 1.1 µM and inactive = higher.
Assays:
Assay in all cases: NCI tumour cell line growth inhibition, 48 h
RXF 631 = system: RXF 631
XF498 = system: XF498
U-251 = system: U-251
HCT-15 = system: HCT-15
SK-MEL-2 = system: SK-MEL-2
COLO 205 = system: COLO 205
A549 = system: A549
RPMI-8226 = system: RPMI-8226
OVCAR-3 = system: OVCAR-3
M19-MEL = system: M19-MEL
K562 = system: K562
LOX IMVI = system: LOX IMVI
SK-MEL-28 = system: SK-MEL-28
RXF 393 = system: RXF 393
SNB-78 = system: SNB-78
UO-31 = system: UO-31
786-0 = system: 786-0
UACC-257 = system: UACC-257
NCI-H522 = system: NCI-H522
A498 = system: A498
SK-OV-3 = system: SK-OV-3
M14 = system: M14
TK-10 = system: TK-10
OVCAR-8 = system: OVCAR-8
EKVX = system: EKVX
SF-295 = system: SF-295
KM-20L2 = system: KM-20L2
CAKI-1 = system: CAKI-1
SK-MEL-5 = system: SK-MEL-5
SNB-19 = system: SNB-19
SN12C = system: SN12C
CCRF-CEM = system: CCRF-CEM
SW-620 = system: SW-620
SF-268 = system: SF-268
IGROV-1 = system: IGROV-1
HT-29 = system: HT-29
UACC-62 = system: UACC-62
HOP-62 = system: HOP-62
KM12 = system: KM12
DMS-114 = system: DMS-114
DLD-1 = system: DLD-1
Malme-3M = system: Malme-3M
MOLT-4 = system: MOLT-4
NCI-H226 = system: NCI-H226
LXFL 529 = system: LXFL 529
SNB-75 = system: SNB-75
HCC 2998 = system: HCC 2998
SF-539 = system: SF-539
DMS-273 = system: DMS-273
NCI-H23 = system: NCI-H23
NCI-H460 = system: NCI-H460
OVCAR-5 = system: OVCAR-5
HOP-18 = system: HOP-18
OVCAR-4 = system: OVCAR-4
HCT-116 = system: HCT-116
HL-60 = system: HL-60
HOP-92 = system: HOP-92
ACHN = system: ACHN
SR = system: SR

Measured: GI50

NC(=O)c1ccc([N+](=O)[O-])cc1
> 100 µM: HCT-15
inactive: RXF 631 > 100 µM | XF498 > 100 µM | U-251 > 100 µM | SK-MEL-2 > 100 µM | COLO 205 > 100 µM | A549 > 100 µM | RPMI-8226 > 100 µM | OVCAR-3 > 100 µM | M19-MEL > 100 µM | K562 > 100 µM | LOX IMVI > 100 µM | SK-MEL-28 > 100 µM | RXF 393 > 100 µM | SNB-78 > 100 µM | UO-31 > 100 µM | 786-0 > 100 µM | UACC-257 > 100 µM | NCI-H522 > 100 µM | A498 > 100 µM | SK-OV-3 > 100 µM | M14 > 100 µM | TK-10 > 100 µM | OVCAR-8 > 100 µM | EKVX > 100 µM | SF-295 > 100 µM | KM-20L2 > 100 µM | CAKI-1 > 100 µM | SK-MEL-5 > 100 µM | SNB-19 > 100 µM | SN12C > 100 µM | CCRF-CEM > 100 µM | SW-620 > 100 µM | SF-268 > 100 µM | IGROV-1 > 100 µM | HT-29 > 100 µM | UACC-62 > 100 µM | HOP-62 > 100 µM | KM12 > 100 µM | DMS-114 > 100 µM | DLD-1 > 100 µM | Malme-3M > 100 µM | MOLT-4 > 100 µM | NCI-H226 > 100 µM | LXFL 529 > 100 µM | SNB-75 > 100 µM | HCC 2998 > 100 µM | SF-539 > 100 µM | DMS-273 > 100 µM | NCI-H23 > 100 µM | NCI-H460 > 100 µM

COC(=O)C1Cc2c([nH]c3ccccc23)C(c2ccccc2O)N1Cc1ccccc1 (configuration not stated)
> 46.5 µM: HCT-15
inactive: RXF 631 21.2 µM | U-251 20.6 µM | SK-MEL-2 21.8 µM | COLO 205 41.7 µM | A549 32 µM | RPMI-8226 > 100 µM | OVCAR-5 > 46.5 µM | OVCAR-3 27.7 µM | M19-MEL 40.6 µM | K562 37.5 µM | LOX IMVI 44.9 µM | SK-MEL-28 > 31.6 µM | HOP-18 31.6 µM | RXF 393 20.8 µM | SNB-78 34 µM | UO-31 31 µM | 786-0 20.7 µM | UACC-257 33.7 µM | NCI-H522 16.4 µM | A498 28.9 µM | SK-OV-3 30.8 µM | M14 38.4 µM | TK-10 34.3 µM | OVCAR-4 24.4 µM | OVCAR-8 29.4 µM | EKVX > 31.6 µM | SF-295 21 µM | KM-20L2 > 46.5 µM | CAKI-1 22.2 µM | SK-MEL-5 27.2 µM | SNB-19 > 31.6 µM | SN12C 36 µM | CCRF-CEM > 46.5 µM | SW-620 39.5 µM | SF-268 26.4 µM | IGROV-1 25.5 µM | HT-29 28.2 µM | UACC-62 25.4 µM | HOP-62 41.2 µM | KM12 > 31.6 µM | DMS-114 19.8 µM | DLD-1 74 µM | Malme-3M > 31.6 µM | MOLT-4 42.1 µM | HCT-116 23.3 µM | NCI-H226 35.7 µM | LXFL 529 31.5 µM | SNB-75 7.05 µM | HCC 2998 > 31.6 µM | SF-539 27.8 µM | DMS-273 23.8 µM | HL-60 > 46.5 µM | HOP-92 22.6 µM | NCI-H23 44.3 µM | ACHN 28.4 µM | NCI-H460 30.8 µM | SR 28.4 µM

Cc1ccc2nc3c(C)cc(=O)cc-3sc2c1
16 µM: HCT-15
inactive: RXF 631 31.2 µM | U-251 31.8 µM | SK-MEL-2 20 µM | COLO 205 27.6 µM | A549 20.1 µM | OVCAR-5 27.9 µM | OVCAR-3 22 µM | M19-MEL 15.9 µM | K562 12.6 µM | SK-MEL-28 25.9 µM | HOP-18 56.6 µM | SNB-78 32.5 µM | UO-31 32 µM | 786-0 18.7 µM | UACC-257 20.2 µM | NCI-H522 17.8 µM | SK-OV-3 59.6 µM | M14 19.6 µM | TK-10 22.7 µM | OVCAR-4 16.7 µM | OVCAR-8 22.8 µM | EKVX 28.2 µM | SF-295 31.5 µM | KM-20L2 43.5 µM | CAKI-1 19.3 µM | SK-MEL-5 15.5 µM | SNB-19 38.1 µM | SN12C 21.3 µM | CCRF-CEM 10.5 µM | SW-620 17.2 µM | SF-268 25.6 µM | IGROV-1 31.8 µM | HT-29 36.2 µM | UACC-62 14.1 µM | HOP-62 27.5 µM | KM12 22.9 µM | DMS-114 17.5 µM | DLD-1 30.3 µM | Malme-3M 27.3 µM | MOLT-4 12.6 µM | HCT-116 17.3 µM | NCI-H226 24.8 µM | LXFL 529 17.9 µM | SNB-75 32.7 µM | HCC 2998 26.9 µM | SF-539 18.9 µM | DMS-273 27.9 µM | HL-60 2.45 µM | HOP-92 34.2 µM | NCI-H23 20.8 µM | ACHN 17.7 µM | NCI-H460 23.4 µM | SR 19.1 µM

OCCN(CCO)c1cccc(N(CCO)CCO)c1
> 100 µM: HCT-15
inactive: RXF 631 > 100 µM | XF498 > 100 µM | U-251 > 100 µM | SK-MEL-2 > 100 µM | COLO 205 > 100 µM | A549 > 100 µM | RPMI-8226 > 100 µM | OVCAR-3 > 100 µM | M19-MEL > 100 µM | K562 > 100 µM | LOX IMVI > 100 µM | SK-MEL-28 > 100 µM | RXF 393 > 100 µM | SNB-78 > 100 µM | UO-31 28.6 µM | 786-0 > 100 µM | UACC-257 > 100 µM | NCI-H522 > 100 µM | A498 > 100 µM | SK-OV-3 > 100 µM | M14 > 100 µM | TK-10 > 100 µM | OVCAR-4 > 100 µM | OVCAR-8 > 100 µM | EKVX > 100 µM | SF-295 > 100 µM | KM-20L2 38.5 µM | CAKI-1 > 100 µM | SK-MEL-5 > 100 µM | SNB-19 39.2 µM | CCRF-CEM > 100 µM | SW-620 > 100 µM | SF-268 > 100 µM | UACC-62 72.8 µM | HOP-62 > 100 µM | KM12 > 100 µM | DMS-114 > 100 µM | DLD-1 > 100 µM | MOLT-4 > 100 µM | HCT-116 > 100 µM | LXFL 529 > 100 µM | SNB-75 > 100 µM | DMS-273 > 100 µM | HL-60 > 100 µM | HOP-92 > 100 µM | NCI-H23 > 100 µM | ACHN > 100 µM | NCI-H460 > 100 µM | SR > 100 µM

O=C(CC(=O)N1N=C(n2ccc3ccccc32)CC1c1ccccc1)Nc1ccc(Cl)cc1 (configuration not stated)
> 100 µM: HCT-15
inactive: RXF 631 > 100 µM | U-251 > 100 µM | SK-MEL-2 > 100 µM | COLO 205 > 100 µM | A549 > 100 µM | RPMI-8226 52.1 µM | OVCAR-5 > 100 µM | OVCAR-3 > 100 µM | M19-MEL > 100 µM | K562 > 100 µM | LOX IMVI > 100 µM | SK-MEL-28 > 100 µM | HOP-18 > 100 µM | RXF 393 > 100 µM | SNB-78 > 100 µM | UO-31 > 100 µM | 786-0 > 100 µM | UACC-257 > 100 µM | NCI-H522 > 100 µM | A498 > 100 µM | SK-OV-3 > 100 µM | M14 > 100 µM | TK-10 > 100 µM | OVCAR-4 > 100 µM | OVCAR-8 > 100 µM | EKVX > 100 µM | SF-295 > 100 µM | KM-20L2 > 100 µM | SNB-19 > 100 µM | SN12C > 100 µM | CCRF-CEM > 100 µM | SW-620 > 100 µM | SF-268 > 100 µM | IGROV-1 > 100 µM | HT-29 > 100 µM | UACC-62 > 100 µM | HOP-62 > 100 µM | KM12 > 100 µM | DMS-114 > 100 µM | DLD-1 > 100 µM | Malme-3M > 100 µM | MOLT-4 8.39 µM | HCT-116 > 100 µM | LXFL 529 > 100 µM | SNB-75 59.7 µM | HCC 2998 > 100 µM | SF-539 8.75 µM | DMS-273 > 100 µM | HL-60 > 100 µM | HOP-92 77.6 µM | NCI-H23 > 100 µM | ACHN > 100 µM | NCI-H460 > 100 µM

Reference: ChEMBL document CHEMBL1201862, “PubChem BioAssay data set” (2004)
